Entries after “also recorded” stand apart in the source; their conditions may differ. Strand notation (5' to 3'): a small letter for the sugar, then the base; units joined by * are phosphorothioate-linked, units joined directly phosphodiester-linked; [ ] holds rarer units or linkages, { } end groups; capitals alone tell only the bases. [5IU] = 5-iodo-2'-deoxyuridine; [HEG] = Spacer 18, hexaethylene glycol phosphate; [TEG] = Spacer 9, triethylene glycol phosphate; [2doub] = Doubler2 branching unit (Chemgenes); [6NB] = 6-nitro-benzimidazol nucleoside; [5BrU] = 5-bromo-2'-deoxyuridine (BU); [5mC] = 5-methylcytosine; d = 2'-deoxy (DNA); m = 2'-O-methyl

In the data set the target is T1, human TLR9 (Homo sapiens, UniProt Q9NR96).
T1 construct: expressed in transfected cells
T1 sequence (Q9NR96 26-1032): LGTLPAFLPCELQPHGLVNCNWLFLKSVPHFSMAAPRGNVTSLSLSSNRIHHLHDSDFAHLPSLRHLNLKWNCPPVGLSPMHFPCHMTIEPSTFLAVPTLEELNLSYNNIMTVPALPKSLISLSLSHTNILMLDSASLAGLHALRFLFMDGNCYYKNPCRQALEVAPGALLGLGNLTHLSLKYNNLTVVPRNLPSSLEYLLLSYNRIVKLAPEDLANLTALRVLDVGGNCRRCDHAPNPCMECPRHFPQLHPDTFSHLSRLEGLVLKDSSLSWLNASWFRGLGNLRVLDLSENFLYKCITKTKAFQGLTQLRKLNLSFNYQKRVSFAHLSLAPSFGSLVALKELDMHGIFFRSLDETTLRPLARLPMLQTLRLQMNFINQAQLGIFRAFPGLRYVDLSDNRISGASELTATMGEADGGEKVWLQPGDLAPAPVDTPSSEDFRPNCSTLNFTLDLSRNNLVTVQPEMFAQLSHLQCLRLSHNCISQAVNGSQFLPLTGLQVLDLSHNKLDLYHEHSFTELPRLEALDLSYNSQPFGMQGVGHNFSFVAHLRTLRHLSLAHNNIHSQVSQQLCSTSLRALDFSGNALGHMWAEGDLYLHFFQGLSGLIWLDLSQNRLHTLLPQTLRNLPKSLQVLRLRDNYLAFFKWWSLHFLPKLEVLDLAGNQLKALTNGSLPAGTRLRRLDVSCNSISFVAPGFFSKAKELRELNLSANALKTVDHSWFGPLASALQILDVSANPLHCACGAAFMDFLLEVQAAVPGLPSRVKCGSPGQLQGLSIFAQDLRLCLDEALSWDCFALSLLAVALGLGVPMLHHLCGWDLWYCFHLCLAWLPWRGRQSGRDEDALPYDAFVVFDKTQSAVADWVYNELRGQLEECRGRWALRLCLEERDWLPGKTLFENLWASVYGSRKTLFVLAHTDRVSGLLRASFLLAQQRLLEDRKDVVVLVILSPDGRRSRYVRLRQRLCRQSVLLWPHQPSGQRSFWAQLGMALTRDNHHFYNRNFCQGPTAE
The experiment in a line: TLR9 luciferase assay (NF-κB reporter) in hTLR9-LUC-293 cells. The class given is cell-based. To be noted: 16 h, stated in words relative to the comparator ODN. As to the method: HEK293 cells were transfected by electroporation with vectors expressing the respective human TLR and a 6xNF-κB-luciferase reporter plasmid. Stable transfectants (3×10^4 cells/well) were incubated indicated amounts of ODN for 16 h at 37° C. in a humidified incubator. Each data point was done in triplicate. Cells were lysed and assayed for luciferase gene activity (using the BriteLite kit from Perkin-Elmer, Zaventem, Belgium). Stimulation indices were calculated in reference to reporter gene activity of medium without addition of ODN.
As to “(JU*C*G*T*T*C*G*L*)2doub-3mG (DNA NCGTTCGNNN; JU, 3'3'-branched doubler, chemistry not fully specified) [SEQ ID NO:97]”, the “TLR9 stimulation (NF-κB luciferase activity, relative stimulation index)” value is “as active or more active than the unmodified SEQ ID NO:1”. The value for “(JU*C*G*T*T*C*G*L*)2doub-teg (DNA d[5IU]*dC*dG*dT*dT*dC*dG*[HEG]*[2doub][TEG]; some compounds branched: two arms joined via doubler and TEG) [SEQ ID NO:102, 3′3′-branched]” was “as active or more active than the unmodified SEQ ID NO:1; also recorded: more active than SEQ ID NO:96 AND 97”. The value for “(T*G*JU*C-G*T*T*L*)2doub-3mG (DNA TGNCGTTNNN; JU, 3'3'-branched doubler, chemistry not fully specified) [SEQ ID NO:96]” was “as active or more active than the unmodified SEQ ID NO:1”; that for “(T*G*JU*C-G*T*T*L*)2doub-teg (DNA TGNCGTTNNN; JU modification, 3'3'-branched doubler with TEG, chemistry not fully specified) [SEQ ID NO:101]” was “as active or more active than the unmodified SEQ ID NO:1; also recorded: more active than SEQ ID NO:96 AND 97”; that for G*JU*C-G*JU*T-hex [SEQ ID NO:126] was “greatly enhanced the activity”. The same measure for “JU*C-G*JU*C*G*T*T*T*T*A*C*G*G*C*G*C*C*G*T*G*C*C*G (DNA d[5IU]*dCdG*d[5IU]*dC*dG*dT*dT*dT*dT*dA*dC*dG*dG*dC*dG*dC*dC*dG*dT*dG*dC*dC*dG) [SEQ ID NO:44]”: “increased stimulation of TLR9 above unmodified A and C class”.

Regarding “T*C*G*JU*C-G*JU*T*T*T*A*C*G*G*C*G*C*C*G*T*G*C*C*G (DNA dT*dC*dG*d[5IU]*dCdG*d[5IU]*dT*dT*dT*dA*dC*dG*dG*dC*dG*dC*dC*dG*dT*dG*dC*dC*dG) [SEQ ID NO:45]”, the “TLR9 stimulation (NF-κB luciferase activity, relative stimulation index)” value is “increased stimulation of TLR9 above unmodified A and C class”.

As for “T*C*T*T*T*T*T*T*G*U*C-G*T*T*T*T*T*T*T*T*T*T (DNA dT*dC*dT*dT*dT*dT*dT*dT*dG*dU*dCdG*dT*dT*dT*dT*dT*dT*dT*dT*dT*dT) [SEQ ID NO:51, U-modified T class]”, the “TLR9 stimulation (NF-κB luciferase activity, relative stimulation index)” value is recorded as “reduced stimulation of TLR9”. The same measure for “T*C-G-A-C-G-JU-C-G-JU-G-G*G*G*G (DNA dT*dCdGdAdCdGd[5IU]dCdGd[5IU]dGdG*dG*dG*dG) [SEQ ID NO:36, JU-modified A class]”: “increased stimulation of TLR9 above unmodified A and C class”; for “T*C-G-A-C-G-JU-C-G-T-G-G*G*G*G (DNA dT*dCdGdAdCdGd[5IU]dCdGdTdGdG*dG*dG*dG) [SEQ ID NO:35, JU-modified A class]”: “increased stimulation of TLR9 above unmodified A and C class”.

As to “T*G*6NB*C-G*T*T*T*T*T*T*T*T*T*T*T*T*T*T*T (DNA TGNCGTTTTTTTTTTTTTTT; DNA at 1, 2, 4, 5, 6, 7, 8, 9, 10, 11, 12, 13, 14, 15, 16, 17, 18, 19, 20, [6NB] at 3, linkages s3 o1 s15 (s phosphorothioate, o phosphodiester), other sugars not given here; further chemistry not fully specified) [SEQ ID NO:178, B-class with 6-nitro-benzimidazol (6NB)]”, the “TLR9 stimulation (NF-κB luciferase activity, relative stimulation index)” value is “comparable with the unmodified parent sequence”. Take “T*G*BU*C-G*T*T*T*T*T*T*T*T*T*T*T*T*T*T*T (DNA dT*dG*d[5BrU]*dCdG*dT*dT*dT*dT*dT*dT*dT*dT*dT*dT*dT*dT*dT*dT*dT) [SEQ ID NO:10]”: the “TLR9 stimulation (NF-κB luciferase activity, relative stimulation index)” value was “greater stimulation of TLR9 activity over control”. The value for “T*G*BVU*C-G*T*T*T*T*T*T*T*T*T*T*T*T*T*T*T (DNA TGNCGTTTTTTTTTTTTTTT; listed as DNA, chemistry not fully specified) [SEQ ID NO:153, B-class with 5-(2-bromo-vinyl)-uridine (BVU)]” was “more active in the assay than the parent sequence”; that for “T*G*CU*C-G*T*T*T*T*T*T*T*T*T*T*T*T*T*T*T (DNA TGNCGTTTTTTTTTTTTTTT; CU modification, chemistry not fully specified) [SEQ ID NO:41]” was “greater stimulation of TLR9 activity over control”; that for “T*G*EU*C-G*EU*T*T*T*T*T*T*T*T*T*T*T*T*T*T (DNA TGNCGNTTTTTTTTTTTTTT; EU modifications, chemistry not fully specified) [SEQ ID NO:30]” was “significant increase in TLR9 activation”.

Regarding “T*G*EU*C-G*T*T*T*T*T*T*T*T*T*T*T*T*T*T*T (DNA TGNCGTTTTTTTTTTTTTTT; EU modification, chemistry not fully specified) [SEQ ID NO:42]”, the “TLR9 stimulation (NF-κB luciferase activity, relative stimulation index)” value is “greater stimulation of TLR9 activity over control; also recorded: significant increase in TLR9 activation”. The value for “T*G*JU*C-E*T*T*T*T*T*T*T*T*T*T*T*T*T*T*T (DNA TGNCNTTTTTTTTTTTTTTT; JU, 7-deaza-dG, chemistry not fully specified) [SEQ ID NO:138, B-class with 7-deaza-dG (E)]” was “more active in the assay than the parent ODN”. The value for “T*G*JU*C-I*T*T*T*T*T*T*T*T*T*T*T*T*T*T*T (DNA TGUCNTTTTTTTTTTTTTTT; DNA at 3, [5IU] at 3, linkages s3 o1 s15 (s phosphorothioate, o phosphodiester), other sugars and the base at N not given here; position 5 is inosine) [SEQ ID NO:139, B-class with inosine (I)]” was “more active in the assay than the parent ODN”. The value for “T*G*JU*C-mG*T*T*T*T*T*T*T*T*T*T*T*T*T*T*T (DNA dT*dG*d[5IU]*dCmG*dT*dT*dT*dT*dT*dT*dT*dT*dT*dT*dT*dT*dT*dT*dT) [SEQ ID NO:112, 2′-O-methyl-modified B-class]” was “slightly more active”; that for “T*G*JU*Z-G*T*T*T*T*T*T*T*T*T*T*T*T*T*T*T (DNA dT*dG*d[5IU]*d[5mC]dG*dT*dT*dT*dT*dT*dT*dT*dT*dT*dT*dT*dT*dT*dT*dT) [SEQ ID NO:140, B-class with 5-methyl-dC (Z)]” was “more active in the assay than the parent ODN”; that for “T*G*PU*C-G*T*T*T*T*T*T*T*T*T*T*T*T*T*T*T (DNA TGNCGTTTTTTTTTTTTTTT; 5-propynyl-dU, chemistry not fully specified) [SEQ ID NO:116, B-class with 5-proynyl-dU (PU)]” was “activity comparable to that of the parent sequence; also recorded: slightly improved over the parent sequence”. For “T*G*T*C-G*BVU*T*T*T*T*T*T*T*T*T*T*T*T*T*T (DNA TGTCGNTTTTTTTTTTTTTT; listed as DNA, chemistry not fully specified) [SEQ ID NO:154, B-class with 5-(2-bromo-vinyl)-uridine (BVU)]”, the “TLR9 stimulation (NF-κB luciferase activity, relative stimulation index)” value was “more active in the assay than the parent sequence”. Take “T*G*T*C-G*PU*T*T*T*T*T*T*T*T*T*T*T*T*T*T (DNA TGTCGNTTTTTTTTTTTTTT; 5-propynyl-dU, chemistry not fully specified) [SEQ ID NO:117, B-class with 5-proynyl-dU (PU)]”: the “TLR9 stimulation (NF-κB luciferase activity, relative stimulation index)” value is reported as “activity comparable to that of the parent sequence”. The same measure for “T*G*U*C-G*T*T*T*T*T*T*T*T*T*T*T*T*T*T*T (DNA dT*dG*dU*dCdG*dT*dT*dT*dT*dT*dT*dT*dT*dT*dT*dT*dT*dT*dT*dT) [SEQ ID NO:16]”: “dramatically decreased activity”.

These data come from patent publication US8580268B2, “CpG oligonucleotide analogs containing hydrophobic T analogs with enhanced immunostimulatory activity” (Coley Pharmaceutical GmbH, priority 2006, dated 2013).
